Earlier results in patent publication US20100055163A1, “FORMULATION OF NATURAL T[…] […] FROM THE GENUS OLEA IN LIPOSOMES” (UNIVERSIDAD DE GRANADA, priority 2006, published 2010).

Assays:
[1] = tested on: acquired immunodeficiency virus; conditions: acts intracellularly
[2] = tested on: parasites of the genus Cryptosporidium; design: dose or concentration left out as unconfirmed; conditions: MDCK cell lines
HIV-1 protease = HIV-1 protease (Human immunodeficiency virus type 1 group M subtype B, UniProt P04585)
rainbow trout = conditions: added to feed
[3] = tested on: membrane hepatocyte lipid peroxidation (LPO); conditions: rats

Structure (SMILES): CC1(C)CC[C@]2(C(=O)O)CC[C@]3(C)C(=CC[C@@H]4[C@@]5(C)C[C@@H](O)[C@H](O)C(C)(C)[C@@H]5CC[C@]43C)[C@@H]2C1 [maslinic acid, 2-alpha, 3-beta-dihydroxy-28-carboxy-oleanene]
- exit of the virus from the infected cell towards the medium [1]: considerably inhibits
- infection inhibition percentage [2]: 92.3%
- inhibiting activity in vitro of HIV-1 protease (HIV-1 protease): powerful inhibiting activity
- hepatic organ and function (rainbow trout): significant improvement of the hepatic organ and function
- lipoperoxide levels and membrane hepatocyte susceptibility to lipid peroxidation (LPO) [3]: reduces lipoperoxide levels and membrane hepatocyte susceptibility to lipid peroxidation (LPO)
